≈ marks a conversion by molar mass, not a printed value. Entries after “also recorded” stand apart in the source; their conditions may differ. Structures can show the parent of a compound that is named as a salt.

A short description of data set [1]: Solid form screen: thermodynamic stability and form conversion. The class given is physicochemical. The following applies: for Form conversion upon heating: heating (under vacuum); for Thermodynamic stability among crystalline forms: screening process of the HCl and HBr salts. As for the experimental part:
A solid form screen of HCl and HBr salts of Compound A was conducted. Crystalline salt forms of Compound A were identified, including a crystalline HCl salt form, a crystalline toluene solvate of a crystalline HCl salt form (also referred to herein an HCl salt toluene solvate form of Compound A), a crystalline HBr salt form, a crystalline toluene solvate of a crystalline HBr salt form (also referred to herein an HBr salt toluene solvate form of Compound A). Amorphous salt forms of Compound A were also identified, including an amorphous HCl salt form and an amorphous HBr salt form.
Further, the DV S data of both crystalline HCl and HBr salts form of Compound A indicate that these two materials are non-hygroscopic.

Data set [2] is described as follows: Dissolution profiles, PION MicroDiss (FIG. 16). The class given is physicochemical. The conditions noted are these: FaSSIF + 0.2% Tween 80, ~37° C.; for Rate and extent of dissolution: compared to amorphous free base. As to the method:
Dissolution profiles were generated comparing the free base anhydrous crystalline form of Compound A, the amorphous free base form of Compound A, the crystalline HCl salt form of Compound A, and the crystalline HBr salt form of Compound A. The dissolution profiles were obtained by employing a PION MicroDiss profiler equipped with Rainbow […] 8-channel in-situ fiber optic UV-vis spectrometer, heating blocks and magnetic stirrers. Dissolution media was equilibrated at 37° C. using Thermo Neslab RTE 7 recirculating chiller prior to addition of samples. Calibration standards were prepared by serial dilution from a methanol stock solution at 12 levels spanning concentrations 0-38 μg/mL. Samples were analyzed simultaneously in duplicate using the parameters described in the table below. [table]

Data set [3] can be described thus: Dynamic Vapor Sorption (DVS), hygroscopicity. The class given is physicochemical. The conditions noted are these: 25° C., 0% RH-90% RH-0% RH. As for the experimental part: Dynamic Vapor Sorption (DVS): Water sorption data were collected using a DVS Adventure dynamic vapor sorption analyzer (Surface Measurement Systems). The relative humidity at 25° C. was calibrated against the deliquescence point of LiCl, Mg(NO3)2 and KCl. Approximately 5-15 mg were loaded onto a tared metal pan. Data were collected from 0 to 90 to 0% RH in 5% increments at 25° C. Progression to the next stage occurred when the change in mass with respect to time was less than 0.002 per minute or after 180 minutes, whichever occurred first. The minimum stage time was 10 minutes. [table]

Data set [4] in a line: Solubility in FaSSIF (shake 2 hr, HPLC). The class given is physicochemical. The conditions noted are these: for Solubility: 2 h. As for the experimental part: Solubility: Samples were prepared by adding ˜10 mg of the solid to a small centrifuge tube followed by the addition of 1.75 mL freshly prepared FaSSIF solution. The pH of each suspension was measured prior to shaking the samples in an Eppendorf ThermoMixer F1.5 at 37° C. and 1500 rpm for 2 hr. The samples were centrifuged, and the pH of each suspension was measured again at the T=2 hr timepoint. The samples were filtered through Millex 0.20 μm PTFE syringe filters and the filtrates were diluted by a factor of 2 with acetonitrile. Solubility samples were prepared in duplicate. […] The samples were analyzed by HPLC using the method parameters described in the table below. [table] […] The samples were analyzed by HPLC using the method parameters described in the table below. [table]

For data set [5], the system named is HS patients. The following applies: vs. placebo, pre-specified Hurley Stage III (severe HS) patients, 12 weeks; cited from earlier work.
The test system of data set [6] is C3G patients. The conditions noted are these: compared to placebo, 26 weeks of blinded treatment; cited from earlier work.
Data set [7] in a line: Dissolution profiles vs Napsylate, Tosylate, Besylate salt forms (FIGS. 35(a), 35(b)). It counts as physicochemical. The following applies: for Cmax of dissolution profile: Besylate salts. An excerpt: FIGS. 35(a) and 35(b) show dissolution profiles of crystalline HCl Form 1 of Compound A of this disclosure compared to Napsylate, Tosylate, and Besylate salt forms of Compound A. The concentrations of the salts used are roughly double in FIG. 35(b) than in FIG. 35(a).
FIGS. 35(a) and 35(b) show dissolution profiles of crystalline HCl Form 1 of Compound A of this disclosure compared to Napsylate, Tosylate, and Besylate salt forms of Compound A. Besylate, Tosylate Napsylate salt forms of Compound A were prepared as described in WO 2021/092295. The concentrations of the salts used are roughly double in FIG. 35(b) than in FIG. 35(a).

Regarding `Cc1ccc(NC(=O)[C@H]2CCCN(C(=O)c3c(C)cccc3F)[C@H]2c2ccc(NC3CCCC3)cc2)cc1C(F)(F)F` [HBr salt toluene solvate form of Compound A] [(2R,3S)-2-(4-(cyclopentylamino)phenyl)-1-(2-fluoro-6-methylbenzoyl)-N-(4-methyl-3-(trifluoromethyl)phenyl)piperidine-3-carboxamide], in data set [1], the “Form conversion upon heating” value is “convert to the respective HBr and HCl crystalline salt forms of Compound A upon heating; also recorded: converts to the HCl crystalline salt form of Compound A upon heating under vacuum from about 100 °C to about 125 °C from about 4 to about 24 hours”.
Take `Cc1ccc(NC(=O)[C@H]2CCCN(C(=O)c3c(C)cccc3F)[C@H]2c2ccc(NC3CCCC3)cc2)cc1C(F)(F)F` [HCl salt toluene solvate form of Compound A] [(2R,3S)-2-(4-(cyclopentylamino)phenyl)-1-(2-fluoro-6-methylbenzoyl)-N-(4-methyl-3-(trifluoromethyl)phenyl)piperidine-3-carboxamide]: the “Form conversion upon heating” value in data set [1] is “convert to the respective HBr and HCl crystalline salt forms of Compound A upon heating; also recorded: converts to the HCl crystalline salt form of Compound A upon heating under vacuum at about 60 °C for about 2 hours”.
Turning to `Cc1ccc(NC(=O)[C@H]2CCCN(C(=O)c3c(C)cccc3F)[C@H]2c2ccc(NC3CCCC3)cc2)cc1C(F)(F)F` [Crystalline HBr salt form, (2R,3S)-2-(4-(cyclopentylamino)phenyl)-1-(2-fluoro-6-methylbenzoyl)-N-(4-methyl-3-(trifluoromethyl)phenyl)piperidine-3-carboxamide], in data set [1], the “Thermodynamic stability among crystalline forms” value is given as “most thermodynamically stable crystalline forms identified in the screening process”. Also, the “Rate and extent of dissolution” value in data set [2] (listed as crystalline HBr salt form of Compound A) is “performed similar in terms of rate and extent of dissolution to the amorphous form of avacopan”. In addition, in data set [3], the “Hygroscopicity (DVS)” value was “non-hygroscopic”. Further, the “Solubility relative to Besylate, Tosylate and Napsylate forms” value in data set [4] is on record as “significantly more soluble”.
Take `Cc1ccc(NC(=O)[C@H]2CCCN(C(=O)c3c(C)cccc3F)[C@H]2c2ccc(NC3CCCC3)cc2)cc1C(F)(F)F` [Compound A, (2R,3S)-2-(4-(cyclopentylamino)phenyl)-1-(2-fluoro-6-methylbenzoyl)-N-(4-methyl-3-(trifluoromethyl)phenyl)piperidine-3-carboxamide]: the “HiSCR (Hidradenitis Suppurativa Clinical Response)” value in data set [5] was “statistically significant dose-dependent improvement in HiSCR”. Further, the “Renal function as measured by eGFR” value in data set [6] was “statistically significant improvement in renal function”.
For the compound `Cc1ccc(NC(=O)[C@H]2CCCN(C(=O)c3c(C)cccc3F)[C@H]2c2ccc(NC3CCCC3)cc2)cc1C(F)(F)F` [Crystalline HCl salt form, (2R,3S)-2-(4-(cyclopentylamino)phenyl)-1-(2-fluoro-6-methylbenzoyl)-N-(4-methyl-3-(trifluoromethyl)phenyl)piperidine-3-carboxamide], in data set [1], the “Thermodynamic stability among crystalline forms” value is listed as “most thermodynamically stable crystalline forms identified in the screening process”. Besides, in data set [2] (listed as crystalline HCl salt form of Compound A), the “Rate and extent of dissolution” value is recorded as “follows very closely”. In addition, the “Cmax of dissolution profile” value in data set [2] (compared to crystalline HBr salt and amorphous form) is “lesser Cmax”; in data set [7] (FaSSGF+0.2% tween 80 (pH 1.2)) it was “highest Cmax of all salts”; in data set [7] (FaSSIF+0.2% tween 80 (pH 6.5)) it was “highest Cmax of all salts”. Moreover, the “Hygroscopicity (DVS)” value in data set [3] is listed as “non-hygroscopic”. Further, the “Solubility relative to Besylate, Tosylate and Napsylate forms” value in data set [4] is listed as “significantly more soluble”. Also, the “Tmax of dissolution profile” value in data set [7] (Besylate salt forms) was “higher than the Napsylate, Tosylate, and Besylate salt forms of Compound A”.
Turning to `Cc1ccc(NC(=O)[C@H]2CCCN(C(=O)c3c(C)cccc3F)[C@H]2c2ccc(NC3CCCC3)cc2)cc1C(F)(F)F` [Free Base Anhydrous Crystalline Form, (2R,3S)-2-(4-(cyclopentylamino)phenyl)-1-(2-fluoro-6-methylbenzoyl)-N-(4-methyl-3-(trifluoromethyl)phenyl)piperidine-3-carboxamide, reference compound], the Solubility in data set [4] stood at 1.71 µg/mL (≈ 2.94 µM).
Consider `Cc1ccc(NC(=O)[C@H]2CCCN(C(=O)c3c(C)cccc3F)[C@H]2c2ccc(NC3CCCC3)cc2)cc1C(F)(F)F` [Free Base Amorphous Form, (2R,3S)-2-(4-(cyclopentylamino)phenyl)-1-(2-fluoro-6-methylbenzoyl)-N-(4-methyl-3-(trifluoromethyl)phenyl)piperidine-3-carboxamide, reference compound], for which, in data set [4], the Solubility was 19.44 µg/mL (≈ 33.4 µM).

One may read the Solubility as the dissolved amount per volume that the medium holds.

Values taken from patent US20250333381A1, “SOLID STATE FORMS” (AMGEN INC., priority 2024, published 2025).
